Reference: publication PMC5971447, “Selective inhibition of intestinal guanosine 3′,5′-cyclic monophosphate signaling by small-molecule protein kinase inhibitors” (The Journal of Biological Chemistry, 2018)

Columns and labels:
[1] = biological target: T1, cGKII (Homo sapiens, UniProt Q13237); experiment: […]-ATP peptide (2A3) phosphorylation; assay type: biochemical; conditions: read-out: pIC50 in vitro (converted)
T1 construct: gene PRKG2; recombinant full-length, His-tagged, baculovirus insect cell expression; dimer
T1 sequence (Q13237 2-762): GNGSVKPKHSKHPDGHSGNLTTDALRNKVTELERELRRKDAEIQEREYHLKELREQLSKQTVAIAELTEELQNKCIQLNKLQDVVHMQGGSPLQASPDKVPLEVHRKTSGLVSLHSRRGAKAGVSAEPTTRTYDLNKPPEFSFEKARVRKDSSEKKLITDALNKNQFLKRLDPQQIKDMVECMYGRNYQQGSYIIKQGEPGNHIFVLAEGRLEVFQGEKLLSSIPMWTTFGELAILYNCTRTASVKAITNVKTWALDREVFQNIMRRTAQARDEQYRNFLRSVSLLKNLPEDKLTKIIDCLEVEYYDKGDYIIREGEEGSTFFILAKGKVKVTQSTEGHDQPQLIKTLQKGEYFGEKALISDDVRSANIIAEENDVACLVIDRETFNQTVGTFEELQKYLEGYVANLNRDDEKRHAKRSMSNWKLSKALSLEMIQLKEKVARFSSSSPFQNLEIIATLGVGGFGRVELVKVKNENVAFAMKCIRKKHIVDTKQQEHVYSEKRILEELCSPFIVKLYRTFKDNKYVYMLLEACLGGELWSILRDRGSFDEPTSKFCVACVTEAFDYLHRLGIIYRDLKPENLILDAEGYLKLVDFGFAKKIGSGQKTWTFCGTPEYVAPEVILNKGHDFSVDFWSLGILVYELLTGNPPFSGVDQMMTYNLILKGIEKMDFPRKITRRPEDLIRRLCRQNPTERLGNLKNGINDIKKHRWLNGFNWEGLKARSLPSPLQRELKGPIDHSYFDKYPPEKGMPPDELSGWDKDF

[2] = biological target: T2, cGKI (Homo sapiens, UniProt Q13976); experiment: […]-ATP peptide (2A3) phosphorylation; assay type: biochemical; conditions: 50 uM cGMP, pH 7.4, 5 mM MgCl2, 22 C
T2 construct: gene PRKG1; recombinant full-length, commercial (Promega)
T2 sequence (Q13976 2-671): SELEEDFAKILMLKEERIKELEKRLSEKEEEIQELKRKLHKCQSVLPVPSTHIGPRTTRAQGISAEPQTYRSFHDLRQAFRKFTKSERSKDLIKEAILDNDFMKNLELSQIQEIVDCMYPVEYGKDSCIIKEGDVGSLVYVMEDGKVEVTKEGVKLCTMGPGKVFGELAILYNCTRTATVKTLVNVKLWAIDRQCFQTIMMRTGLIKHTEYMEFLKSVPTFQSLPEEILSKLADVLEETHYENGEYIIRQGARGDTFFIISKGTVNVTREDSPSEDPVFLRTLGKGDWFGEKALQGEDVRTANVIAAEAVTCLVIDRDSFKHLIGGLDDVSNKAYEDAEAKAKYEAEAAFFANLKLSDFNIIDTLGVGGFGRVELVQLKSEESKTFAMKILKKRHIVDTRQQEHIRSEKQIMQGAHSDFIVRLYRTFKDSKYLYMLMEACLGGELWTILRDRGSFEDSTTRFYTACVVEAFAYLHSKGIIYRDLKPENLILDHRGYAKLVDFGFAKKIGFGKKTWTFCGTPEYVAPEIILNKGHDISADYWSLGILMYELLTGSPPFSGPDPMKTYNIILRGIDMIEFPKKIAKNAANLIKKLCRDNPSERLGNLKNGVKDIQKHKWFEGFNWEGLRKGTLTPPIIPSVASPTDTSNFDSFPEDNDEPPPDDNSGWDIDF

Row | IC50 [1] [nM] | Compound | pIC50 [2]
1 | 316 | COc1ccc(CCNc2nccc(-c3ccc4ccccc4c3)n2)cc1OC [AP-C1] | –
2 | 6310 | c1csc(-c2ccnc(NCCc3c[nH]c4ccccc34)n2)c1 [AP-C2] | –
3 | 6310 | c1ccc2c(CCNc3nccc(-c4ccc5c(c4)OCCO5)n3)c[nH]c2c1 [AP-C4] | –
4 | 316 | OCCNc1nccc(-c2ccc(-n3ccnc3)cc2)n1 [AP-C6] | potency of inhibition of cGKI and PKA was markedly lower than of cGKII

The remaining lines, values behind:

Row | Compound | IC50 [1] [nM] | pIC50 [2]
5 | COc1ccc(CCNc2nccc(-c3ccc4c(c3)OCCO4)n2)cc1OC [AP-C3] | 501 | –
6 | C#CCNc1nccc(-c2ccc(-n3ccnc3)cc2)n1 [AP-C5] | 63.1 | potency of inhibition of cGKI and PKA was markedly lower than of cGKII
7 | c1coc(CNc2nccc(-c3ccc(-n4ccnc4)cc3)n2)c1 [AP-C7] | 10000 | –
